# Values joined by “and” are separate entries in the source; they are usually repeats but may differ in a detail not shown here. Identical values can stand only once. Like-named read-outs stand apart in the source and are kept apart here.
# What was measured:
# in vitro = details: both, human, plasma
# [1] = Hepatic metabolic stability (hepatocyte clearance) assay, substrate depletion; assay type: in vitro ADME, human; details: both sexes, human; for half-life at 1 μM: read-out: Linear Regression Results, Best-Fit Values, Half Life
# Text: (§1) William’s Medium E (Gibco A1217601), dexamethasone, and cell maintenance cocktail B (Gibco CM4000) were obtained from Thermo Fisher Scientific (Waltham, MA, USA). Hepatosure OptiThaw media (P/N K8000; Lot No. 18–1–0322) was obtained from Sekisui Xenotech (Kansas City, KS, USA). Trypan blue solution (P/N 1450021) was obtained from Bio-Rad (Hercules, CA, USA). Pooled human cryopreserved primary hepatocyte suspensions were obtained from BioIVT (Westbury, NY, USA) and produced using nontransplantable tissue. The human 50-donor pool (mixed gender; Cat X0080005; Lot MYC), selected from BioIVT’s commercially available, prepooled lots, was selected following review of vendor-generated metabolic characterization information. Pooled, mixed-sex human plasma from de-identified donors was obtained from a commercial vendor that operates a U.S. Food and Drug Administration-licensed and inspected donor center (BioIVT bioivt.com (accessed 12 May 2023). Donors comprised five males and five females and ranged from 20 to 50 years of age. Plasma collected using anticoagulant K2EDTA was sterile-filtered ([…]) and stored at <−70 °C until use.
# (§2) The hepatic metabolic stability assay measures the loss of a parent compound over time in a substrate-depletion approach. Briefly, hepatocyte suspensions, after a viability assessment, were diluted in complete William’s medium E (containing dexamethasone and cell maintenance cocktail B) prior to addition to 96-well polypropylene plates containing an equal volume of media spiked with the test compound (1 μM assay concentration; assay cell density = 50,000 cells/100 μL) and maintained at 37 °C with shaking. At each time point, relevant plates were crashed with an equal volume of ice-cold acetonitrile, centrifuged, and supernatant transferred to a new plate prior to storage at <−70 °C until quantitative analysis. Controls, run in parallel, included cell-free (i.e., media only) and metabolically inactivated hepatocytes to evaluate abiotic chemical stability in the aqueous media matrix with and without cellular protein. In preliminary runs, these controls were run at T0 and T240 only. If significant instability was noted, the hepatocyte clearance assay was rerun, including cell-free samples at each time point and metabolically inactivated hepatocytes at selected time points.
# (§3) To process samples for quantitative analysis, samples were thawed and mixed. An aliquot of sample was removed and diluted in acetonitrile (1 part sample plus 9 parts acetonitrile) containing the relevant ISs selected for the PFAS being analyzed (See Table S2). The target at instrument concentration of each IS was 10 pg/μL.
# (§4) The curves were generated using concentration/response ratios from the target analyte and IS, with either linear or quadratic regression models. The model and weighting, if necessary, were chosen to most accurately reflect the response of each compound and was evaluated by recalculating the individual calibration points using the curve. An acceptable model reflected an accuracy of ±30% of the theoretical value.
# (§5) Hepatic metabolic clearance data were plotted in semi-log format (ln concentration vs. time) with three replicates at each time point, as previously described. […] The equations described below are used to calculate the chemical half-life (T½) and intrinsic in vitro clearance (Clin vitro) with units of μL/(min × million hepatocytes). In Equation (3), 2000 is a scalar used to adjust the assay cell number up to be consistent with units of 1 million cells in the Clint equation.
# (§6) Negative controls, including media only and metabolically inactivated hepatocyte controls, were included to monitor abiotic loss (i.e., background clearance) during the assay. Where significant compound loss occurred using the analysis described above, background clearance rates were calculated and used to background-adjust hepatic metabolic clearance rates. […]
# [2] = tested on: pooled human cryopreserved primary hepatocyte suspensions; assay: as above; assay type: in vitro ADME; details: for Concentration (nM), Time 0 min / Concentration (nM), Time 15 min / Concentration (nM), Time 30 min / Concentration (nM), Time 60 min / Concentration (nM), Time 120 min: hepatocyte incubation, Rep 1-3, start conc 1000 nM; for Linear Regression Results, Best-Fit Values, Slope: hepatocyte time course
# Text: as §1, §2, §3, §4, §5, §6
# [3] = In vitro-in vivo extrapolation (IVIVE) to Css and administered equivalent dose (AED); set-up: species or system human; details: for Clhep: IVIVE, hepatocyte Clint scaled to whole-liver clearance; for AED: administered equivalent dose from LOEC and Css; for Fub: fub=fup/(B:P), Fub set to 1 if needed; for CLint: scaled with HPGL 110 mill cells/g, Vl 1596 g
# Protocol: Using the experimentally generated PPB (fraction unbound in plasma, fup) and hepatic Clint data, IVIVE was performed as previously described to calculate human steady-state plasma concentrations (Css). Briefly, experimental measures of fup are adjusted using blood:plasma partitioning information to estimate the fraction unbound in blood (fub). Experimental hepatocyte Clint data are scaled up to represent whole-liver clearance (L/h). […] Once estimated, these Css values are considered in conjunction with published in vitro bioactivity concentrations (i.e., lowest-observed effective concentrations, or LOECs) to calculate AEDs (Table 2). See Table S10 for all relevant IVIVE inputs, scalars, calculations, and outputs.
# [4] = Abiotic loss in negative controls of the hepatocyte clearance assay (cell-free media, metabolically inactivated hepatocytes); assay type: in vitro ADME; details: for half-life at 1 μM / HT BkgdCl, Slope / No Cells BkgdCl, Slope: 0 vs 240 min; for Hep_Stab_Fail: flag for stability failure in hepatocyte clearance assay controls (1 or Fst = fail, 0 = pass)
# In short: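 Abiotic stability was checked with media-only and inactivated-hepatocyte controls, run at T0 and T240 or, on rerun, at more time points. Compound at 1 μM, 37 °C, acetonitrile quench. Loss rates served for background subtraction, and ≥50% loss by T120 meant exclusion.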
# human plasma [5] = assay: Ultracentrifugation (UC) plasma protein binding assay, fraction unbound in plasma (fup); details: for fup: human plasma, 10 μM, ultracentrifugation, 37 °C; for Fup.Med: median fraction unbound in plasma; for Fup.Med / Fup.point: UC assay Level4; for Fup.point: point estimate of fraction unbound in plasma
# human plasma [6] = assay: Chemical stability in plasma over the UC assay time course (T5hr/T1hr); details: for PPB_Stab_Fail: flag for stability failure in the plasma protein binding assay (1 = fail, 0 = pass); for Fstable.Med: median fraction stable in plasma, UC assay Level4
# Protocol: Three replicates were run per experiment, with 4NT included as a reference compound in each to evaluate assay performance. All PFAS and 4NT, prepared at a 3 mM working stock, were added to human plasma to achieve a final, thoroughly mixed assay concentration of 10 μM, incubated at 37 °C for 1 h with shaking. […] After UC, the aqueous fraction (AF; i.e., supernatant devoid of plasma proteins/lipoproteins/fatty acids) was collected and transferred to a new tube. The second aliquot maintained at 37 °C was collected (T5hr). At the relevant time points, each volume of sample was combined with 3 volumes of vigorously mixed ice-cold acetonitrile with the labeled IS and stored for 10 min at −20 °C prior to centrifugation at 12,000× g for 10 min at 4 °C. The supernatant was collected and stored at <−70 °C until quantitative analysis. […] Furthermore, chemical stability in plasma over the assay time course was assessed using the T1hr and T5hr samples.
# Percent chemical remaining at the end of the UC assay (T5hr/T1hr) was used to remove unstable chemicals from further evaluation.
# human primary cells = details: cited from earlier work
# [7] = Mean fu, fraction unbound in human plasma, ultracentrifugation, some values based on eLOQ
# [8] = hepatocytes, background-subtracted, read-out: Bkgd-Sub Clearance (µL/min/106 hepatocytes)
# [9] = hepatocytes, hepatocyte clearance, Conc 1000 nM, not background adjusted, read-out: Unadj Clint
# [10] = hepatocytes, pooled human hepatocyte suspensions, 1 μM, read-out: In Vitro Clint
# [11] = hepatocytes, unadjusted hepatocyte intrinsic clearance, read-out: Unadj in vitro Clint
# [12] = hepatocytes, hepatocyte time course, NS = slope not significant, read-out: Linear Regression Results, Best-Fit Values, Clearance
# [13] = hepatocytes, hepatocyte time course, NS = slope not significant
# [14] = s9, Bayesian analysis median, 1 μM assay concentration (Table S9), read-out: Clint.1.Med
# [15] = Assuming 1 mg/kg/day dose rate, BW 70 kg
# [16] = human steady-state plasma concentration, assuming 1 mg/kg/day dosage
# [17] = buffer, no cells control, read-out: No Cells BkgdCl, Half Life
# [18] = heat treated hepatocytes control
# [19] = BioSeek lowest-observed effect concentration used for AED
# [20] = minimum lowest-observed effect concentration, BioSeek platform
# [21] = heat treated hepatocytes, Rep 1-3
compound,measurement,setting,value
NC(=O)C(F)(F)C(F)(F)C(F)(F)C(F)(F)F [Nonafluoropentanamide],fraction unbound,"in vitro; Fraction Unbound (fu), Run-specific Avg, run-specific average",0.2
same,fraction unbound,"in vitro; Fraction Unbound (fu), replicate A, individual replicate A of the UC run dated in c8",0.228
same,fraction unbound,"in vitro; Fraction Unbound (fu), replicate B, individual replicate B of the UC run dated in c8",0.178
same,fraction unbound,"in vitro; Fraction Unbound (fu), replicate C, individual replicate C of the UC run dated in c8",0.191
same,fraction unbound,in vitro; [7],0.199
same,hepatocyte CLint at 1 μM,[1]; [8],26 µL/min/1e6 cells
same,hepatocyte CLint at 1 μM,[1]; [9],34.9 µL/min/1e6 cells
same,hepatocyte CLint at 1 μM,[1]; [10],26 µL/min/1e6 cells
same,hepatocyte CLint at 1 μM,[1]; [11],34.9 µL/min/1e6 cells
same,hepatocyte CLint at 1 μM,[1]; [12],34.9 µL/min/1e6 cells
same,half-life at 1 μM,[1]; [13],0.661 h
same,hepatocyte CLint at 1 μM,[1]; [14],88.7 µL/min/1e6 cells
same,"Concentration (nM), Time 0 min",[2],390.162 nM and 651.917 nM and 499.488 nM
same,"Concentration (nM), Time 15 min",[2],214.882 nM and 126.475 nM and 193.144 nM
same,"Concentration (nM), Time 30 min",[2],192.232 nM and 153.873 nM and 192.317 nM
same,"Concentration (nM), Time 60 min",[2],74.6949 nM and 76.5031 nM and 55.8443 nM
same,"Concentration (nM), Time 120 min",[2],22.6965 nM and 21.4336 nM and 13.3509 nM
same,"Linear Regression Results, Best-Fit Values, Slope",[2],-0.01747
same,Css,[3]; [15],0.06 mg/L and 0.23 uM
same,Clhep,[3],47.130 L/h
same,AED,[3],31.0338 mg/kg/day
same,Fub,[3],0.3609
same,Css,[3]; [16],0.23 µM
same,CLint,[3],4569125 µL/min
same,half-life at 1 μM,"[4]; both sexes, human, heat treated hepatocytes control, read-out: HT BkgdCl, Half Life",1.58 h
same,half-life at 1 μM,[4]; [17],2.59 h
same,Hep_Stab_Fail,[4],0
same,"HT BkgdCl, Slope",[4]; [18],-0.007311
same,"No Cells BkgdCl, Slope",[4]; no cells control,-0.004457
same,"Negative Controls, No cells (NC), concentration at 0 min",[4]; Rep 1-3,364.995 nM and 386.302 nM and 296.545 nM
same,"Negative Controls, No cells (NC), concentration at 240 min",[4]; Rep 1-3,132.756 nM and 122.614 nM and 103.779 nM
same,fup,human plasma [5],0.1985
same,Fup.Med,human plasma [5],0.192
same,Fup.point,human plasma [5],0.199
same,PPB_Stab_Fail,human plasma [6],0
same,Mean Stability (T5hr/T1hr),"human plasma [6]; mean over all UC runs and replicates, human plasma",0.975
same,Fstable.Med,human plasma [6],0.999
same,"Stability (T5hr/ T1hr), Run-specific Avg",human plasma [6]; run-specific average,0.945
same,LOEC,human primary cells; [19],7.00 µM
same,LOEC,human primary cells; [20],7 µM
"OCC(F)(F)C(F)(F)C(F)(F)C(F)(F)C(F)(F)C(F)(F)CO [1H,1H,8H,8H-Perfluorooctane-1,8-diol]",fraction unbound,"in vitro; Fraction Unbound (fu), Run-specific Avg, average of one UC run (run date in line above)",0.0529
same,fraction unbound,"in vitro; Fraction Unbound (fu), individual replicates A, B, C of the UC run named in c8",0.0626
same,fraction unbound,in vitro; [7],0.056
same,hepatocyte CLint at 1 μM,[1]; [8],20 µL/min/1e6 cells
same,hepatocyte CLint at 1 μM,[1]; [9],22.8 µL/min/1e6 cells
same,hepatocyte CLint at 1 μM,[1]; [10],20 µL/min/1e6 cells
same,hepatocyte CLint at 1 μM,[1]; [11],22.8 µL/min/1e6 cells
same,hepatocyte CLint at 1 μM,[1]; [12],22.8 µL/min/1e6 cells
same,half-life at 1 μM,[1]; [13],1.01 h
same,hepatocyte CLint at 1 μM,[1]; [14],5.03 µL/min/1e6 cells
same,"Concentration (nM), Time 0 min",[2],833.88 nM and 886.538 nM and 918.72 nM
same,"Concentration (nM), Time 15 min",[2],552.068 nM and 564.688 nM and 626.636 nM
same,"Concentration (nM), Time 30 min",[2],572.698 nM and 772.55 nM and 675.577 nM
same,"Concentration (nM), Time 60 min",[2],915.509 nM and 882.56 nM and 951.955 nM
same,"Concentration (nM), Time 120 min",[2],252.926 nM and 197.823 nM and 212.459 nM
same,"Linear Regression Results, Best-Fit Values, Slope",[2],-0.01141
same,Css,[3]; [15],0.16 mg/L and 0.45 uM
same,Clhep,[3],17.326 L/h
same,AED,[3],15.5263 mg/kg/day
same,Fub,[3],0.1018
same,Css,[3]; [16],0.45 µM
same,CLint,[3],3512253 µL/min
same,half-life at 1 μM,[4]; [17],8.21 h
same,Hep_Stab_Fail,[4],0
same,"HT BkgdCl, Slope",[4]; [18],-0.00103
same,"Negative Controls, Heat Treated (HT), concentration at 0 min",[4]; [21],1090.28 nM and 973.38 nM and 645.077 nM
same,"Negative Controls, Heat Treated (HT), concentration at 240 min",[4]; [21],595.287 nM and 737.448 nM and 742.842 nM
same,"No Cells BkgdCl, Slope",[4]; no cells control,-0.001407
same,"Negative Controls, No cells (NC), concentration at 0 min",[4]; Rep 1-3,937.465 nM and 878.747 nM and 1163.86 nM
same,"Negative Controls, No cells (NC), concentration at 240 min",[4]; Rep 1-3,676.807 nM and 658.518 nM and 781.013 nM
same,Aqueous Fraction,"human plasma [5]; amount measured in aqueous fraction after ultracentrifugation, replicates A, B, C, unit not given",467.47 and 486.886 and 467.528 and 459.225 and 404.056 and 403.816
same,fup,human plasma [5],0.0560
same,Fup.Med,human plasma [5],0.0465
same,Fup.point,human plasma [5],0.0506
same,Time 1 hr,"human plasma [6]; amount measured in plasma sample at 1 hr, replicates A, B, C, unit not given",8242.79 and 6998.48 and 7495.85 and 8652.78 and 7694.03 and 8210.48
same,Time 5 hr,"human plasma [6]; amount measured in plasma sample at 5 hr, replicates A, B, C, unit not given",7470.56 and 8168.83 and 8821.07 and 7477.64 (2×) and 9359.65
same,"Stability (T5hr/ T1hr), Run-specific Avg",human plasma [6]; average of one UC run (run date in line above),0.913
same,PPB_Stab_Fail,human plasma [6],0
same,Mean Stability,"human plasma [6]; mean T5hr/T1hr ratio over all replicates and runs, plasma",0.997
same,Fstable.Med,human plasma [6],0.989
same,LOEC,human primary cells; [19],7.00 µM
same,LOEC,human primary cells; [20],7 µM

# — paper PMC10223284, “Category-Based Toxicokinetic Evaluations of Data-Poor Per- and Polyfluoroalkyl Substances (PFAS) using Gas Chromatography Coupled with Mass Spectrometry” (Toxics, 2023)
